# Laboratory results published in patent publication US20190353647A1, “NOVEL REAL-TIME MULTIPLEXED, MULTI-COLOR BIOLUMINESCENCE RESONANCE ENERGY TRANSFER ASSAY, APPARATUS, AND USES THEREOF” (Universite de Bordeaux, priority 2016, published 2019).
# How the values were obtained:
# Type in all cases: cell-based
# TRPV1 = biological target: T1, TRPV1 (Homo sapiens, UniProt Q8NER1); assay: Three-color spectral BRET, TRPV1-Luc/mAmetrine-CaM component in mixed HEK293T cells; conditions: 20 μM CAPS injected at 75 seconds, real time, mixed cell population
# T1 construct: expressed in transfected cells; host or cells: HEK293T
# T1 sequence (Q8NER1 whole entry): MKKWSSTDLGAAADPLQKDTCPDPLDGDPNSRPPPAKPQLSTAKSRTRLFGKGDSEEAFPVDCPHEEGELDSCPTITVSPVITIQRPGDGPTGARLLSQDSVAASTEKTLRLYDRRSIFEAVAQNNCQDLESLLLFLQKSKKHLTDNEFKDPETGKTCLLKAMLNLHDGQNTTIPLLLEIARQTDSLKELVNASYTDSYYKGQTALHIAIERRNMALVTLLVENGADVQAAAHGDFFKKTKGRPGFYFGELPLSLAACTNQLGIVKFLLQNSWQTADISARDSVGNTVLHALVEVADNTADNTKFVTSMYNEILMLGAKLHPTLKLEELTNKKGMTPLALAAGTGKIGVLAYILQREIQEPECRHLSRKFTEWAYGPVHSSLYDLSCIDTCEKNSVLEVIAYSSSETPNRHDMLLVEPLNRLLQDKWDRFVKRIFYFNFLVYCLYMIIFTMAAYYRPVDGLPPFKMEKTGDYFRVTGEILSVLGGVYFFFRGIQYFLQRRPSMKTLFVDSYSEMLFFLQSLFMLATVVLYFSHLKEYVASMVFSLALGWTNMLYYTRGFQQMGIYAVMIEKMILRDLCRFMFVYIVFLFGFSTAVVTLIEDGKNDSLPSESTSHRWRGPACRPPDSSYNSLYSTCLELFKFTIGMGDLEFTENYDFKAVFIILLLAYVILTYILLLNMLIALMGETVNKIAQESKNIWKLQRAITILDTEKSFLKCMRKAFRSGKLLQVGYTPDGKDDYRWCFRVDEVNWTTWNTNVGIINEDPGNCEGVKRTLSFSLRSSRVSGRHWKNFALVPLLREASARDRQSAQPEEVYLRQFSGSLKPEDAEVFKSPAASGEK
# Description: Using the LabView programming language (National Instruments, Austin, Tex., USA), an interface was developed to run the acquisition of the bioluminescent spectra and perform real-time spectral decomposition of the BRET signal into its various components. The experimental emission spectra of Luc, YFP, mAmetrine, aquamarine, and Lss-mOrange were first obtained experimentally using a Cary Eclipse Fluorimeter (Agilent Technology, Santa Clara, Calif., USA) (FIG. 3). Each spectrum was then fitted as a sum of Gaussian curves based on Eq.3.: […]
# TRPV4 = TRPV4 (Homo sapiens, UniProt Q9HBA0); assay: Three-color spectral BRET, TRPV4-Luc/LSSmOrange-CaM component in mixed HEK293T cells; set-up: expressed in transfected cells; host or cells: HEK293T (mixed with two other transfected populations); conditions: 100 nM GSK101 injected at 75 seconds, real time, mixed cell population
# Chain of TRPV4 (Q9HBA0 whole entry): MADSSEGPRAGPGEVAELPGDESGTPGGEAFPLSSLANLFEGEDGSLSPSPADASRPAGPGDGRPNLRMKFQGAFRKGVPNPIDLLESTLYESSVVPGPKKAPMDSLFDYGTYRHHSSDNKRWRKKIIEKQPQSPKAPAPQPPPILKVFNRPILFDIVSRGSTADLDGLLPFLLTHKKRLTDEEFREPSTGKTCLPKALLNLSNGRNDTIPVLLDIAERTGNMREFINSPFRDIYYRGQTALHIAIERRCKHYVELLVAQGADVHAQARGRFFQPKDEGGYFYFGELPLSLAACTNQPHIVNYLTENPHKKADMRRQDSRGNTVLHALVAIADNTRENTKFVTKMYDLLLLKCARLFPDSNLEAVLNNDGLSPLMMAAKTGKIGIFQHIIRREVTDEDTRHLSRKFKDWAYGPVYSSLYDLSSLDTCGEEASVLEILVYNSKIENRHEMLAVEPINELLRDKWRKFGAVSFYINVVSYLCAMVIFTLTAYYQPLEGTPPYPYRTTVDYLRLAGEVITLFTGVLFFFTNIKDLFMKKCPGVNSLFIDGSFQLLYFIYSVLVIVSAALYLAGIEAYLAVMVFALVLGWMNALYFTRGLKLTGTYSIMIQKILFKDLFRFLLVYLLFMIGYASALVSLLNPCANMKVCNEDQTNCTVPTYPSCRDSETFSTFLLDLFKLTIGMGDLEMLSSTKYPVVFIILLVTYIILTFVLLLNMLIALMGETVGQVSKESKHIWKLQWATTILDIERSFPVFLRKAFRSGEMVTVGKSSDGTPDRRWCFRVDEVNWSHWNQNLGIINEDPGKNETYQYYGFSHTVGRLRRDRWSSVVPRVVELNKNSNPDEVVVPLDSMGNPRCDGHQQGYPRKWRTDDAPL
# Description: (§1) FIG. 2: Multiplexing measurements of TRPV activity using multicolor BRET. (A) Example of a three-color BRET spectrum and its decomposition, measured in a coculture containing three HEK293T subpopulations transfected with aquamarine-Luc, mAmetrine-Luc, or LSSmOrange-Luc. The grey dots represent the experimental data. Black, light grey, medium grey, and grey solid lines represent the spectral components of Luc, aquamarine, mAmetrine, and LSSmOrange, respectively. […] Results represent the mean of three independent experiments.
# (§2) Full BRET spectra were acquired using an optical fiber linked to a Spectra Pro 2300i spectrometer, equipped with a liquid-nitrogen-cooled CCD camera for recording the full visible spectrum (Acton Optics, Acton, Mass., USA). The bioluminescent signal was recorded from transfected cells seeded onto a glass coverslip and placed into a white opaque measurement chamber made of Teflon® and containing an isotonic solution (NaCl 145 mM, KCl 5 mM, KH2PO4 4 mM, CaCl2 1 mM, MgSO4 1 mM, Glucose 10 mM). The temperature of the cell buffer was regulated using an Eppendorf® ThermoStat Plus and measured in real time using a fiber-optic temperature measurement Luxtron 812 system (Lumasense technologies, Santa Clara, Calif., USA). […]
# TRPV3 = biological target: T2, TRPV3 (Homo sapiens, UniProt Q8NET8); assay: Three-color spectral BRET, Luc-TRPV3/aquamarine-CaM component in mixed HEK293T cells; set-up: expressed in transfected cells; host or cells: HEK293T (mixed with two other transfected populations); conditions: one mM Drofenine injected at 75 seconds, real time, mixed cell population
# T2 sequence (Q8NET8 1-790): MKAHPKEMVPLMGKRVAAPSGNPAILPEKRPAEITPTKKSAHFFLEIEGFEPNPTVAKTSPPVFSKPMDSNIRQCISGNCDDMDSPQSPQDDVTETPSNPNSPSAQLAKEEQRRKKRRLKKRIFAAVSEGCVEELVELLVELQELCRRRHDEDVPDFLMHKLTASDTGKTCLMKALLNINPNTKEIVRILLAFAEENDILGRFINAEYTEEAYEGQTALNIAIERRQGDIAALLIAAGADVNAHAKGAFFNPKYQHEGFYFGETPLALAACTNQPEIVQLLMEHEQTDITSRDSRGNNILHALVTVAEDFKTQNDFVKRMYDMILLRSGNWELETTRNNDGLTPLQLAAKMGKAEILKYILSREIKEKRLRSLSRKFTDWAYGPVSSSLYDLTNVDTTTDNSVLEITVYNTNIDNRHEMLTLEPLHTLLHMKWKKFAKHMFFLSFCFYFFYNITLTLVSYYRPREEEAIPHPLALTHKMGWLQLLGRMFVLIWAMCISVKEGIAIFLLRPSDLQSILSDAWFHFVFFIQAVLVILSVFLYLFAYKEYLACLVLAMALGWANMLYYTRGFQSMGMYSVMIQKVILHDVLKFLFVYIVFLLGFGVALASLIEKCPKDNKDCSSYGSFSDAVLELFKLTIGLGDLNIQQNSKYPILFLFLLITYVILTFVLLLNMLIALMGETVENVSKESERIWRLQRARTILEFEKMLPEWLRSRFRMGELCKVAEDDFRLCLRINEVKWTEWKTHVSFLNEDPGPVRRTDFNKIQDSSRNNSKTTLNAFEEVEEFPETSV
# Description: as §1, §2
smiles,measurement,setting,value
"COc1cc(CNC(=O)CCCC/C=C/C(C)C)ccc1O [CAPS, Capsaicin]",TRPV1 BRET signal in three-color assay,TRPV1,time-dependent increase
CC(C)C[C@H](NC(=O)c1cc2ccccc2s1)C(=O)N1CCN(C(=O)[C@H](CO)NS(=O)(=O)c2ccc(Cl)cc2Cl)CC1 [GSK1016790A],TRPV4 BRET signal in three-color assay,TRPV4,time-dependent increase
CCN(CC)CCOC(=O)C(c1ccccc1)C1CCCCC1 (stereo not drawn) [Drofenine],TRPV3-related BRET component in three-color assay,TRPV3,increase in only the TRPV3-related BRET component
